From ChEMBL document CHEMBL3774317, “Design and synthesis of novel tamoxifen analogues that avoid CYP2D6 metabolism” (Eur J Med Chem, 2016) come the findings set out here.

Holding throughout (format): functional
Assay [1] deals with U-251. As to the kind of experiment: Cytotoxicity against human U251 cells assessed as cell growth at 10^-8 M after 48 hrs by SRB assay. The settings on record: U-251, 48 h, read-out: Activity. (In SRB staining, fixed cells bind dye roughly in proportion to their protein.)
Assay [2] can be described thus: Cytotoxicity against human Hs 578T cells assessed as cell growth at 10^-4 M after 48 hrs by SRB assay. Conditions: read-out: Activity.
A short description of assay [3]: Cytotoxicity against human SNB19 cells assessed as cell growth at 10^-4 M after 48 hrs by SRB assay. The settings on record: SNB-19, 48 h, read-out: Activity.
Assay [4] is described as follows: Cytotoxicity against human HCC2998 cells assessed as cell growth at 10^-4 M after 48 hrs by SRB assay. Conditions: HCC 2998, 48 h, read-out: Activity.
Assay [5] is described as follows: Cytotoxicity against human HOP92 cells assessed as cell growth at 10^-8 M after 48 hrs by SRB assay. Conditions: HOP-92, 48 h, read-out: Activity.
For assay [6], the system named is SK-MEL-2. Kind of assay: Cytotoxicity against human SK-MEL-2 cells assessed as cell growth at 10^-6 M after 48 hrs by SRB assay. Conditions: SK-MEL-2, 48 h, read-out: Activity.
Assay [7] in a line: Cytotoxicity against human SF268 cells assessed as cell growth at 10^-6 M after 48 hrs by SRB assay. Conditions: SF-268, 48 h, read-out: Activity.
The test system of assay [8] is SK-MEL-5. As to the kind of experiment: Cytotoxicity against human SK-MEL-5 cells assessed as cell growth at 10^-6 M after 48 hrs by SRB assay. The settings on record: SK-MEL-5, 48 h, read-out: Activity.
Assay [9] relates to A549. Kind of assay: Cytotoxicity against human A549 cells assessed as cell growth at 10^-8 M after 48 hrs by SRB assay. Conditions: A549, 48 h, read-out: Activity.
Assay [10] can be described thus: Cytotoxicity against human RXF393 cells assessed as cell growth at 10^-4 M after 48 hrs by SRB assay. The settings on record: RXF 393, 48 h, read-out: Activity.
The nature of assay [11]: Cytotoxicity against human SW620 cells assessed as cell growth at 10^-4 M after 48 hrs by SRB assay. The settings on record: SW-620, 48 h, read-out: Activity.
Assay [12] has as its system 786-0. Kind of assay: Cytotoxicity against human 786-0 cells assessed as cell growth at 10^-7 M after 48 hrs by SRB assay. Conditions: 786-0, 48 h, read-out: Activity.
Assay [13] has as its system NCI-H460. Kind of assay: Cytotoxicity against human NCI-H460 cells assessed as cell growth at 10^-6 M after 48 hrs by SRB assay. Conditions: NCI-H460, 48 h, read-out: Activity.
Assay [14] is described as follows: Cytotoxicity against human HCT15 cells assessed as cell growth at 10^-4 M after 48 hrs by SRB assay. The settings on record: HCT-15, 48 h, read-out: Activity.
Assay [15] is described as follows: Cytotoxicity against human Hs 578T cells assessed as cell growth at 10^-8 M after 48 hrs by SRB assay. The settings on record: read-out: Activity.
Assay [16] in a line: Cytotoxicity against human OVCAR8 cells assessed as cell growth at 10^-6 M after 48 hrs by SRB assay. Conditions: OVCAR-8, 48 h, read-out: Activity.
Assay [17] can be described thus: Cytotoxicity against human SKOV3 cells assessed as cell growth at 10^-6 M after 48 hrs by SRB assay. The settings on record: SK-OV-3, 48 h, read-out: Activity.
The subject of assay [18] is A549. As to the kind of experiment: Cytotoxicity against human A549 cells assessed as cell growth at 10^-7 M after 48 hrs by SRB assay. Conditions: A549, 48 h, read-out: Activity.
The test system of assay [19] is EKVX. Kind of assay: Cytotoxicity against human EKVX cells assessed as cell growth at 10^-6 M after 48 hrs by SRB assay. Conditions: read-out: Activity.
Assay [20] in a line: Cytotoxicity against human NCI-ADR-RES cells assessed as cell growth at 5 uM after 48 hrs by SRB assay. The settings on record: read-out: Activity.
Assay [21] deals with U-251. As to the kind of experiment: Cytotoxicity against human U251 cells assessed as cell growth at 50 nM after 48 hrs by SRB assay. The settings on record: U-251, 48 h, read-out: Activity.
Assay [22] has as its system MDA-MB-468. As to the kind of experiment: Cytotoxicity against human MDA-MB-468 cells assessed as cell growth at 50 nM after 48 hrs by SRB assay. The settings on record: MDA-MB-468, 48 h, read-out: Activity.
Assay [23] has as its system T47D. Kind of assay: Cytotoxicity against human T47D cells assessed as cell growth at 50 nM after 48 hrs by SRB assay. The settings on record: read-out: Activity.
Assay [24] can be described thus: Cytotoxicity against human SF268 cells assessed as cell growth at 5 uM after 48 hrs by SRB assay. Conditions: SF-268, 48 h, read-out: Activity.
In assay [25] the test system is A498. As to the kind of experiment: Cytotoxicity against human A498 cells assessed as cell growth at 0.5 uM after 48 hrs by SRB assay. The settings on record: A498, 48 h, read-out: Activity.
A short description of assay [26]: Cytotoxicity against human HL-60(TB) cells assessed as cell growth at 50 uM after 48 hrs by SRB assay. The settings on record: HL-60, 48 h, read-out: Activity.
Assay [27] relates to EKVX. As to the kind of experiment: Cytotoxicity against human EKVX cells assessed as cell growth at 50 uM after 48 hrs by SRB assay. The settings on record: read-out: Activity.
In assay [28] the test system is SN12C. As to the kind of experiment: Cytotoxicity against human SN12C cells assessed as cell growth at 0.5 uM after 48 hrs by SRB assay. The settings on record: read-out: Activity.
Assay [29] has as its system SR. As to the kind of experiment: Cytotoxicity against human SR cells assessed as cell growth at 50 nM after 48 hrs by SRB assay. Conditions: read-out: Activity.
Assay [30] relates to Malme-3M. As to the kind of experiment: Cytotoxicity against human MALME-3M cells assessed as cell growth at 50 nM after 48 hrs by SRB assay. The settings on record: read-out: Activity.
A short description of assay [31]: Cytotoxicity against human COLO205 cells assessed as cell growth at 5 uM after 48 hrs by SRB assay. The settings on record: COLO 205, 48 h, read-out: Activity.
The test system of assay [32] is MDA-MB-435. As to the kind of experiment: Cytotoxicity against human MDA-MB-435 cells assessed as cell growth at 5 nM after 48 hrs by SRB assay. The settings on record: MDA-MB-435, 48 h, read-out: Activity.
Assay [33] deals with U-251. As to the kind of experiment: Cytotoxicity against human U251 cells assessed as cell growth at 50 uM after 48 hrs by SRB assay. Conditions: U-251, 48 h, read-out: Activity.
Assay [34] is described as follows: Cytotoxicity against human DU145 cells assessed as cell growth at 50 uM after 48 hrs by SRB assay. The settings on record: DU-145, 48 h, read-out: Activity.
Assay [35] can be described thus: Cytotoxicity against human SKOV3 cells assessed as cell growth at 5 uM after 48 hrs by SRB assay. Conditions: SK-OV-3, 48 h, read-out: Activity.
Assay [36] can be described thus: Cytotoxicity against human PC3 cells assessed as cell growth at 50 uM after 48 hrs by SRB assay. Conditions: PC-3, 48 h, read-out: Activity.
Assay [37] in a line: Cytotoxicity against human MOLT4 cells assessed as cell growth at 5 nM after 48 hrs by SRB assay. The settings on record: MOLT-4, 48 h, read-out: Activity.
Assay [38] deals with SK-MEL-2. As to the kind of experiment: Cytotoxicity against human SK-MEL-2 cells assessed as cell growth at 5 uM after 48 hrs by SRB assay. The settings on record: SK-MEL-2, 48 h, read-out: Activity.
Assay [39] has as its system HT-29. As to the kind of experiment: Cytotoxicity against human HT-29 cells assessed as cell growth at 50 nM after 48 hrs by SRB assay. The settings on record: HT-29, 48 h, read-out: Activity.
The nature of assay [40]: Cytotoxicity against human NCI-ADR-RES cells assessed as cell growth at 50 uM after 48 hrs by SRB assay. The settings on record: read-out: Activity.
Assay [41] can be described thus: Cytotoxicity against human Hs 578T cells assessed as cell growth at 50 nM after 48 hrs by SRB assay. Conditions: read-out: Activity.
The subject of assay [42] is SN12C. Kind of assay: Cytotoxicity against human SN12C cells assessed as cell growth at 50 nM after 48 hrs by SRB assay. The settings on record: read-out: Activity.

Take `C/C(=C(/c1ccc(O)cc1)c1ccc(OCCN2CCCC2)cc1)c1ccccc1`: the growth at 0.01 µM in [1] turned out to be 103%; in assay [5], 98%; in [9], 99%; in assay [15] it was 100%. The growth at 100 µM in assay [2] was -43%; in [3], -74%; in [4] it was -80%; in assay [10], -81%; in assay [11] it was -92%; in [14], -100%. Moreover, the growth at 1 µM in assay [6] was determined as 99%; in [7], 88%; in assay [8], 96%; in assay [13], 102%; in assay [16], 98%; in assay [17], 89%. For the same molecule, in assay [19], the growth at 1 µM worked out at 78%. Also, the growth at 0.1 µM in assay [12] stood at 99%; in assay [18], 102%.
On to `CCCCCCCCCC(=O)Oc1ccc(/C(=C(/C)c2ccccc2)c2ccc(OCCN3CCCC3)cc2)cc1`, for which the growth at 5 µM in assay [20] came out at 82%; in assay [24], 83%; in [31], 79%; in assay [35], 78%; in [38] it was 100%. Moreover, the growth at 0.05 µM in [21] was found to be 95%; in assay [22] it was 100%; in [23], 62%; in [29], 87%; in assay [30], 98%; in assay [39], 98%. For the same molecule, the values for the growth at 0.05 µM in [41] and in [42] were 92% and 101%, respectively. In addition, the growth at 0.5 µM came out at 49% in [25] and 88% in [28]. In addition, the growth at 50 µM is -70% in [26]; -97% in [27]; -89% in assay [33]; -99% in assay [34]; -90% in assay [36]; -73% in assay [40]. The growth at 0.005 µM in [32] stood at 99%; in assay [37], 97%.
